Measured values published in ChEMBL document CHEMBL1154709, “Perspectives of P-glycoprotein modulating agents in oncology and neurodegenerative diseases: pharmaceutical, biological, and diagnostic potentials” (2010).

Legend:
Homo sapiens [1] = assay: Increase in P-gp-substrate 99mTc]sestaMIBI accumulation in liver of human with metastatic cancer at 150 mg, iv by imaging analysis; type: functional
Homo sapiens [2] = assay: Increase in P-gp-substrate 99mTc]sestaMIBI accumulation in tumor and heart of human with metastatic cancer at 150 mg, iv by imaging analysis; type: functional

Q: How did the Activity (Homo sapiens [1]) turn out when `COc1cc2c(cc1OC)CN(CCc1ccc(NC(=O)c3cc(OC)c(OC)cc3NC(=O)c3cnc4ccccc4c3)cc1)CC2` [TARIQUIDAR] was run?
A: 128%

Q: And the Activity (Homo sapiens [2])?
A: 36%
